Key:
[1] = PAMPA model of passive BBB permeability; format: in vitro ADME; details: PAMPA; passive transport; pH 7.4; 18 hrs; read-out: Effective permeability (pe), PAMPA
Description: PAMPA is used as an in vitro model of passive BBB permeability. An artificial membrane immobilized on a filter is placed between a donor and acceptor compartment. At the start of the test, a drug is introduced in the donor compartment. Following the permeation period, the concentration of the drug in the donor and acceptor compartments are measured using UV spectroscopy. Therefore the permeability of any compound with a UV chromophore can be determined by this method.
The tested compound stock solutions were diluted 200-fold in universal buffer at pH 7.4 and added to the donor wells. The filter membrane was coated with PBL in dodecane and the acceptor well was filled with pH 7.4 buffer. The acceptor filter plate was carefully put on the donor plate to form a ‘sandwich’ (consisting of the aqueous donor with test the compound on the bottom, an artificial lipid membrane in the middle, and an aqueous acceptor on the top). The test compound diffused from the donor well through the lipid membrane and into the acceptor well. The ‘sandwich’ was left undisturbed for 18 hrs while the permeation occurred. The concentration of the test compound in the acceptor, the donor, and the reference wells was determined using the UV plate reader. Effective permeability (Pe) of each compound was calculated by using the pION PSR4p software. Samples were analyzed in triplicate and the average of the three runs was reported. Quality control standards were run with each sample set to monitor the consistency of the analysis set.

PC12 cells [2] = assay: Dose response differentiation assay in PC12 cell line; format: cell-based; details: 100 ng/ml; after 3 days of treatment
Description: Stock of PC12 cultures were maintained in Ham's F12 medium supplemented with 2.5% fetal bovine serum (FBS), 15% of horse serum (HS) and 1% penicillin/streptomycin. The cell culture was maintained in 5% CO2 at 37° C.
PC12 cell differentiation was assessed by treating the cells with all the test compounds (G79, G80, and G81) at different testing concentration (2-20-100 ng/ml and 2-20-50 μg/ml). The cells were first plated into collagen-coated 24-wells plates with 2.5% FBS in the medium to be de-differentiated. After 72 hrs, the test compounds were added and NGF (Sigma Aldrich; 100 ng/ml) as positive control of differentiation. The number of differentiated cells, with neurite processes greater than two cell bodies in length, is counted after 3 days of treatment. The cell count is done in three randomly selected fields with 100 cells.

PC12 cells [3] = assay: Receptor activation assay (PC12 differentiation with anti-TrkA antibody); format: cell-based
Description: The hypothesis that G79, G80, and G81 can act through the binding to the extracellular portion of TrkA (binding site) and activate the tyrosine kinase receptor was tested by treating the PC12 cells with the small chemicals in combination with the antibody anti-TrkA or the K252a, a tyrosine kinase inhibitor. For this purpose PC12 cells were plated into collagen-coated 24-wells plates with 2.5% FBS and after 72 hrs were incubated with the small molecules alone or in combination with anti-TrkA antibody (AbCam, 1:2000) or K252a. NGF (100 ng/ml) was used as control and added alone or in combination with anti-TrkA antibody or K252a. The number of differentiated cells was evaluated after three days of treatment. The cell count was done in three randomly selected fields with 100 cells.

PC12 cells [4] = assay: Signalling inhibition assays (PC12 differentiation with LY294002 or PD98059); format: cell-based
Description: To evaluate if the transduction pathway induced by G79, G80, and G81 involves AKT and ERK activation, PC12 cell were treated with the test compounds in the presence of LY294002, an inhibitor of PI3K (an upstream activator of AKT) and PD98059, an inhibitor of MAPK kinase (an upstream activator of ERK). For this purpose, PC12 cells were plated into collagen-coated 24-wells plates with 2.5% FBS and after 72 hrs the cells were treated with the small molecules in combination with LY294002 (Sigma Aldrich, 10 μM) or PD98059 (Sigma Aldrich, 50 μM). NGF (100 ng/ml) was used as control and added alone or in combination with the inhibitors.

[5] = test system: retinal ganglion cells (RGC); assay: Glaucoma model, count of retinal ganglion cells; format: in vivo, Sprague Dawley rats; details: first experiment; eye drops, NGF 200, G79 200 and 400 μg/ml
Description: 12 Sprague Dawley rats (4 months of age) were anesthetized with […] and subjected to hypertonic saline solution injection into the episcleral vein of the right eye. Intraocular pressure (IOP) was measured before the operation and was monitored one time a week using a TonoLab for 7 weeks. Treatment with G79 was begun one week after glaucoma induction by topical application at the conjunctive. Two different experiments were performed.
In the first experiment, G79 was dissolved into physiological solution and was used at two different concentration (200 μg/ml and 400 μg/ml). NGF was used as positive control (200 μg/ml) and the physiological solution, used to dissolve all the molecules, was subministered as placebo. The animals were divided into 4 groups (3 animals in each group): glaucoma-G79 200 μg/ml; glaucoma-G79 […]; glaucoma-NGF; glaucoma-placebo. The left eye was used as the control without glaucoma. In both experiments, seven weeks after glaucoma induction, animals were sacrificed by overdose of anaesthetic and their eyes were taken and fixed in 4% of PFA. The eyes were included in paraffin and cut into 20 μm sections to be used for histological studies (hematoxilin-eosin staining). The cell count of the number of retinal ganglion cells (RGC) was performed randomly in ten different fields for each eye.
Rats were injected with a hypertonic solution in the eye that induced high intraocular pressure for five weeks. Animals were treated with eye drops of NGF ([…]), G79 ([…]) or placebo every day for five weeks. Animals with glaucoma and treated with placebo (saline) have a significant decrease in the number of retinal ganglion cells compared with control.
In the second experiment, G79 at the concentration of 200 μg/ml was used. The objective of this second experiment was to compare the efficacy of G79 to Timolol, the most common therapy for glaucoma that works by decreasing the intraocular pressure. Also in this experiment, a combination treatment with G79 and Timolol was performed. […]

PC12 cells [6] = assay: Synergistic activity assay (PC12 differentiation in combination with NGF); format: cell-based; details: NGF alone 100 ng/ml
Description: To evaluate if the small molecules G79, G80, and G81 interfere with the maximal activity of NGF or lead to additive effects, PC12 cells were plated into collagen-coated 24-wells plates with 2.5% FBS and treated after 72 h with the small chemicals (each one at 100 ng/ml) in combination with NGF at the concentration of 100 ng/ml. In the same experiment PC12 cells were treated with the small molecules or NGF alone, as controls. The number of differentiated cells was evaluated after three days of treatment. The cell count was done in three randomly selected fields with 100 cells.

PC12 cells [7] = assay: Secretagogue activity assay (PC12 differentiation with antibody anti-NGF); format: cell-based
Description: To assess if the tested compounds, G79, G80, and G81, act as secretagogues, inducing neurotrophic activity through the synthesis of NGF, PC12 cells were plated into collagen-coated 24-wells plates with only 2.5% FBS and after 72 hrs the cells were treated with the tested compounds (each one at 100 ng/ml) together with antibody anti-NGF (1 μg/ml, AbCam). After three days of treatment, the differentiation was evaluated. The cell count was done in three randomly selected fields with 100 cells.

NSC-34 cells = assay: In vitro model of ALS, serum deprivation of motoneuron-like cells (MTT); format: cell-based, mouse; details: G-CSF 2 μg/ml; serum deprivation 48 h
Description: Mouse motoneuron-like cells NCS-34 were cultured in DMEM (Gibco) supplemented with 10% heat inactivated FBS and 1% penicillin/streptomycin. The cell culture was maintained in a humidified atmosphere of 95% air and CO2 at 37° C.
The nutritional deprivation stress in motorneurons was conducted as described previously in Masahito T. et al., J. Neuropathol. Exp. Neurol. 65(8):816-825 (2006). To assess the effect of trophic stress condition on ALS, the presence of apoptosis was investigated using serum deprivation. NSC-34 cells were seeded in 24-well poly-lysinated plates at 30,000 cells/well and preincubated for 24 h in DMEM plus 10% FBS with various doses of G79, G80, and G81 (20 ng/ml, 100 ng/ml, 2 μg/ml, 20 μg/ml, 50 μg/ml), and G-CSF (2 μg/ml) or BDNF (20 ng/ml) which both were used as positive controls (Masahito T. et al., ibid; Elliot J. L., Neurobiology of Disease 6:310-320 (1999)). Then, the medium was removed and replaced with fresh DMEM without FBS. After 48 h, cell viability was assayed by MTT assay, as described previously.

Molecule: CC(C)NCC(O)COc1cccc2ccccc12 (stereo not shown) [propanolol]
- Papp at 18 h [1]: 11.5 ×10⁻⁶ cm/s

Molecule: NC(=O)N1c2ccccc2C=Cc2ccccc21 [carbamazepine]
- Papp at 18 h [1]: 10.3 ×10⁻⁶ cm/s

Molecule: NGF: homodimeric protein from the neurotrophin family; positive control of differentiation and survival
- number of differentiated cells in a field of 100 cells (PC12 cells [2]): 16.1±1.9 cells
- number of differentiated cells (PC12 cells [3]; in combination with anti-TrkA antibody (1:2000)): 12.8±6.3
- number of differentiated cells (PC12 cells [3]; treatment alone): 20.7±7.1
- number of differentiated cells (PC12 cells [4]; plus LY294002 (10 μM), inhibitor of PI3K): 6.8±2.7
- number of differentiated cells (PC12 cells [4]; plus PD98059 (50 μM), inhibitor of MAPK kinase): 2.1±1.9
- number of differentiated cells (PC12 cells [4]; treatment alone): 20.7±7.1
- protection of retinal ganglion cells (number of RGC vs glaucoma-placebo) [5]: significant protection of the ganglion cells
- number of differentiated cells (PC12 cells [6]): 20±7.1
- number of differentiated cells for each field (PC12 cells [7]; 100 ng/ml together with antibody anti-NGF (1 μg/ml)): 12.8±6.3
- number of differentiated cells for each field (PC12 cells [7]; 100 ng/ml, treatment alone): 20.7±7.1

B1: G-CSF: positive control (2 μg/ml) in the in vitro model of ALS (protein, UniProt P09919 31-207, looked up)
Granulocyte …: TPLGPASSLPQSFLLKCLEQVRKIQGDGAALQEKLVSECATYKLCHPEELVLLGHSLGIPWAPLSSCPSQALQLAGCLSQLHSGLFLYQGLLQALEGISPELGPTLDTLQLDVADFATTIWQQMEELGMAPALQPTQGAMPAFASAFQRRAGGVLVASHLQSFLEVSYRVLRHLAQP
- cell viability, percentage relative to the control without stress (NSC-34 cells): 76.50±8.3%

Reference: US10106577B2, “Agonists of neurotrophin receptors and their use as medicaments” (BIONURE FARMA, S.L., priority 2010, dated 2018)
